This is an account of results in patent publication US20060160989A1, “Polypeptide useful as antiallergic/antiasthmatic activity, methods for the preparation thereof, pharmaceutical compositions containing such polypeptide and use thereof” (COUNCIL OF SCIENTIC AND INDUSTRIAL RESEARCH, priority 2002, published 2006).

For data set [1], the system named is leucine *amino-peptidase. The following applies: enzymatic hydrolysis with leucine aminopeptidase, cited from earlier work.
The nature of data set [2]: Other pharmacological studies (cardiovascular, CNS, anti-inflammatory, diuretic). The data set is classed as in vivo. An excerpt:
Other Pharmacological Studies: Peptide 96-199 was further evaluated for its cardiovascular, Central Nervous System (CNS), anti-inflammatory, diuretic activities.

Data set [3] concerns Sensitised mast cells. Put plainly: Mast cell degranulation by egg albumin in sensitised mast cells (immunological). Format: in vivo, rats. An excerpt: (§1) Peptide 96/199 is related to the sequence of IgE Fc fragment.
The test system of data set [4] is sensitised guinea pig ileum. Briefly: Antigen (egg albumin) induced contraction of sensitised guinea pig ileum (Schultz-Dale phenomenon). As to the method: (§2) This activity of peptide 96/199 was comarable with disodium cromoglycate (50 mg/kg ip) which is a standard antiallergic drug effective by inhalation.
For data set [5], the system named is Normal mast cells. Briefly: Mast cell degranulation by comp 48/80 in normal mast cells (non-immunological). The data set is classed as in vivo, rats.
Excerpt: as §1

The test system of data set [6] is normal guinea pigs. Briefly: Aerosol test, histamine, guinea pigs. The data set is classed as in vivo.
Data set [7] deals with passive cutaneous anaphylaxis (PCA). Put plainly: Passive cutaneous anaphylaxis (PCA) test in rats. Format: in vivo. To be noted: for % Anti-PCA activity: rats.
The test system of data set [8] is sensitised guinea pigs. Put plainly: Aerosol test, egg-albumin, sensitised guinea pigs. Format: in vivo. The protocol: as §2
Setting [9] is: 0.5 pro (0.1 × 5 d) mg/kg × days.
Where [10] appears, read: 1.0 pro (0.2 × 5 d) mg/kg × days.
Setting [11] is: 2.5 pro (0.5 × 5 d) mg/kg × days.
[12] abbreviates: 5.0 pro (1.0 × 5 d) mg/kg × days.
Setting [13] is: 50.0 pro (10.0 × 5 d) mg/kg × days.

Where two headings read alike, the source gives them in different places.

leucine enkephaline: the half life in data set [1] (with beta-Cyclodextrins) is 75 m; in data set [1] (without cyclodextrin), 44 min.
With “L-alanyl-glycyl-glycyl-L-aspartyl-sar-L-l ys [96/199]”, in data set [2] (in vivo), the “any other pharmacological activity” value is reported as “devoid of any other pharmacological activity”. The “cardiovascular, Central Nervous System (CNS), anti-inflammatory, diuretic activities” value in data set [2] (up to a dose of 10 mg/kg) was “No significant effects”. The “% Protection, sensitised mast cells (Immunological: Egg albumin)” value in data set [3] (setting [9]) is on record as 34%; in data set [3] (setting [10]), 47%; in data set [3] (setting [11]), 66%; in data set [3] (setting [12]), 72%. Further, the “% Protection to ileum contraction induced by egg albumin” value in data set [4] (concentration 1.0 (μg/mL)) is 60%; in data set [4] (concentration 2.0 (μg/mL)), 78%; in data set [4] (concentration 3.0 (μg/mL)) it was 92%. In addition, the “% Protection, normal mast cells (Noninnunological: Comp. 48/80)” value was found to be 39% in data set [5] (setting [9]), 55% in data set [5] (setting [10]), 77% in data set [5] (setting [11]) and 84% in data set [5] (setting [12]). In addition, the figures for the “% Protection, Histamine aerosol” value in data set [6] (2.5 mg/kg po) and in data set [6] (5.0 mg/kg po) were “Nil” and 10%, respectively. Further, the “% Anti-PCA activity” value is 43% in data set [7] (0.5 mg/kg PO), 48% in data set [7] (1.0 mg/kg PO), 74% in data set [7] (2.5 mg/kg PO) and 82% in data set [7] (5.0 mg/kg PO). For the same compound, the “% Protection, Egg-albumin aerosol” value is reported as 55% in data set [8] (2.5 mg/kg po) and 61% in data set [8] (5.0 mg/kg po).
Consider `O=C([O-])c1cc(=O)c2c(OCC(O)COc3cccc4oc(C(=O)[O-])cc(=O)c34)cccc2o1.[Na+].[Na+]` [DSCG, disodium cromoglycate, reference compound], for which the “% Protection, sensitised mast cells (Immunological: Egg albumin)” value in data set [3] (setting [13]) was 71%. Besides, the figures for the “% Protection to ileum contraction induced by egg albumin” value in data set [4] (concentration 1.0 (μg/mL)), in data set [4] (concentration 2.0 (μg/mL)) and in data set [4] (concentration 3.0 (μg/mL)) were “No block”, 18% and 59%, respectively. In addition, the “% Protection, normal mast cells (Noninnunological: Comp. 48/80)” value in data set [5] (setting [13]) came out at 72%. In data set [6] (50 mg/kg ip), the “% Protection, Histamine aerosol” value stood at 17%. The “anti PCA activity” value in data set [7] (50 mg/kg by nasal route) is recorded as 81%. In data set [7] (50.0 mg/kg IP), the “% Anti-PCA activity” value is 77%. Besides, the “% Protection, Egg-albumin aerosol” value in data set [8] (50 mg/kg ip) amounted to 64%.
